Among the test systems are ACHN; CCRF-CEM; HT-29; K562; KM12; LOX IMVI; M14; MCF7; NCI-H460; OVCAR-3; OVCAR-4; OVCAR-8; PC-3; RXF 393; SF-268; SK-MEL-2; SNB-19; SW-620; UO-31; SR.
Assay in all cases: NCI tumour cell line growth inhibition, 48 h

SMILES strings stand for the structures. Values joined by “and” are separate entries in the source; they are usually repeats but may differ in a detail not shown here. Identical values can stand only once.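 96-well plates; 48 h exposure; 5 concentrations. Endpoints by linear interpolation between flanking doses. Not reached: highest tested concentration assigned. Here, GI50 denotes the concentration required for 50% inhibition of growth.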 Active and inactive are the calls of the source. Cut-off read from the data, not from the text of the source: active = GI50 up to about 1.1 µM and inactive = higher.

As to `COc1ccc2[nH]c(C(=O)N3CC(CCl)c4ccc(N)cc43)cc2c1` (stereo unspecified), the GI50 in the experiment with ACHN was 0.0728 µM (active); with CCRF-CEM, 0.17 µM (active); in the experiment on HT-29, 0.151 µM (active); in the experiment with K562, 0.128 µM (active); in the experiment on KM12 it was 0.156 µM (active); in the experiment on LOX IMVI, 0.177 µM (active). Moreover, the GI50 in the experiment with M14 is 0.146 µM (active); with MCF7, 0.0689 µM (active); in the experiment on NCI-H460 it was 0.0867 µM (active); in the experiment on OVCAR-3 it was 0.27 µM (active); in the experiment with OVCAR-4, 0.163 µM (active); with OVCAR-8 it was 0.223 µM (active). Moreover, the GI50 was 0.233 µM (active) in the experiment on PC-3; 0.09 µM (active) in the experiment on RXF 393; 0.0491 µM (active) in the experiment on SF-268; 0.199 µM (active) in the experiment on SK-MEL-2; 0.586 µM (active) in the experiment with SNB-19; 0.173 µM (active) in the experiment on SW-620. For the same molecule, the GI50 with UO-31 is 0.145 µM (active).

Consider `COc1nc2ncc([C@@H](OC(C)=O)[C@@H](COC(C)=O)OC(C)=O)nc2c(=O)[nH]1`, for which the GI50 in the experiment with ACHN, in the experiment on CCRF-CEM, in the experiment on HT-29, in the experiment on K562, with KM12 and with LOX IMVI was > 100 µM (inactive) in each case. For the same molecule, the GI50 in the experiment on M14, with MCF7, with NCI-H460, with OVCAR-3, in the experiment with OVCAR-4 and in the experiment on OVCAR-8 was > 100 µM (inactive) in each case. Moreover, the GI50 in the experiment with PC-3 is > 100 µM (inactive); with RXF 393, > 100 µM (inactive); in the experiment on SF-268 it was > 100 µM (inactive) and 83.4 µM (inactive); in the experiment with SK-MEL-2, > 100 µM (inactive); in the experiment on SNB-19, > 100 µM (inactive); in the experiment with SW-620, > 100 µM (inactive). Also, in the experiment with UO-31, the GI50 was > 100 µM (inactive).

On to `N#C/C(C(=O)Nc1ccccc1)=C(/N)N1CCCCC1`, for which the GI50 in the experiment on ACHN, in the experiment with CCRF-CEM, in the experiment on HT-29, in the experiment on K562, with KM12 and in the experiment with LOX IMVI was > 100 µM (inactive) throughout. In addition, the GI50 in the experiment on M14 was 91 µM (inactive); in the experiment with MCF7, > 100 µM (inactive); in the experiment on NCI-H460, > 100 µM (inactive); in the experiment with OVCAR-3 it was > 100 µM (inactive); with OVCAR-8, > 100 µM (inactive); with PC-3 it was > 100 µM (inactive). The GI50 in the experiment with SK-MEL-2 is > 100 µM (inactive); in the experiment with SNB-19, > 100 µM (inactive); with SR it was > 100 µM (inactive); with SW-620, > 100 µM (inactive); with UO-31, 67.3 µM (inactive).

In the case of `Cc1csc2nc(-c3ccc([N+](=O)[O-])cc3)c(/C=N/N=C(N)N)n12`, the GI50 in the experiment with ACHN was 1.28 µM (inactive); in the experiment on CCRF-CEM it was 1.91 µM (inactive); with HT-29, 1.76 µM (inactive); with K562, 1.81 µM (inactive); in the experiment on KM12 it was 1.7 µM (inactive); with LOX IMVI, 1.9 µM (inactive). The GI50 in the experiment with M14 is 1.85 µM (inactive); with MCF7, 1.61 µM (inactive); with NCI-H460, 1.79 µM (inactive); in the experiment on OVCAR-3, 2.49 µM (inactive); in the experiment with OVCAR-4 it was 1.53 µM (inactive); in the experiment with OVCAR-8 it was 0.716 µM (active). Besides, the GI50 in the experiment with PC-3 was 1.69 µM (inactive); in the experiment with RXF 393, 1.79 µM (inactive); in the experiment with SF-268, 1.68 µM (inactive); in the experiment with SK-MEL-2, 1.43 µM (inactive); in the experiment on SNB-19, 1.92 µM (inactive); in the experiment with SW-620, 1.94 µM (inactive). Further, the GI50 in the experiment with UO-31 is 1.49 µM (inactive).

As for `COc1ccc(-n2cnn3c(=O)c4cn[nH]c4nc23)cc1`, the GI50 in the experiment on ACHN, in the experiment on CCRF-CEM, in the experiment with HT-29, in the experiment with K562, with KM12 and in the experiment on LOX IMVI was > 10 µM (inactive) throughout. Besides, the GI50 with M14, in the experiment on MCF7, in the experiment on NCI-H460, in the experiment on OVCAR-3, in the experiment on OVCAR-4 and in the experiment with OVCAR-8 was > 10 µM (inactive) each time. Besides, the GI50 in the experiment on PC-3, with SF-268, in the experiment with SNB-19, in the experiment on SR and with UO-31 was > 10 µM (inactive) each time.

`N#Cc1c(O)c(/N=N/c2ccccc2F)c(=O)n2c1[nH]c1ccccc12`: the GI50 in the experiment on ACHN is 34 µM (inactive); with CCRF-CEM, 36.8 µM (inactive); with HT-29, 23.3 µM (inactive); in the experiment with K562, 36.3 µM (inactive); in the experiment on LOX IMVI, 61.9 µM (inactive); in the experiment on M14 it was 22.4 µM (inactive). The GI50 with MCF7 was 32.7 µM (inactive); in the experiment on NCI-H460, 32.6 µM (inactive); in the experiment on OVCAR-3, 36 µM (inactive); in the experiment with OVCAR-4, 39.3 µM (inactive); in the experiment on OVCAR-8, 39.3 µM (inactive); in the experiment with PC-3 it was 30.3 µM (inactive). Further, the GI50 is 37.8 µM (inactive) in the experiment on RXF 393; 32.4 µM (inactive) in the experiment with SF-268; 20.9 µM (inactive) in the experiment with SK-MEL-2; 48.1 µM (inactive) with SNB-19; 63.2 µM (inactive) in the experiment on SW-620; 29.3 µM (inactive) in the experiment with UO-31.

As for `Cc1nc(N)c(N2CCN(S(N)(=O)=O)CC2)c(O)n1`, the GI50 in the experiment on ACHN, in the experiment with CCRF-CEM, in the experiment with HT-29, in the experiment with K562, in the experiment with KM12 and in the experiment on LOX IMVI was > 100 µM (inactive) each time. Also, the GI50 with M14, in the experiment on MCF7, in the experiment on NCI-H460, with OVCAR-3, in the experiment on OVCAR-4 and with OVCAR-8 was > 100 µM (inactive) throughout. The GI50 with PC-3, in the experiment with SF-268, in the experiment with SK-MEL-2, in the experiment on SNB-19, with SR and with SW-620 was > 100 µM (inactive) throughout. The GI50 in the experiment with UO-31 is > 100 µM (inactive).

Take `N#C/C(=N/Nc1[nH]cnc1C(N)=O)C(=O)Nc1ccccc1`: the GI50 was 15.2 µM (inactive) in the experiment on ACHN; 3.23 µM (inactive) in the experiment on CCRF-CEM; 48.6 µM (inactive) in the experiment on HT-29; 1.52 µM (inactive) with K562; 13.9 µM (inactive) in the experiment on KM12; 4.99 µM (inactive) in the experiment with M14. Besides, the GI50 with MCF7 was 54 µM (inactive); with NCI-H460, 37.6 µM (inactive); with OVCAR-3 it was 5.41 µM (inactive); with OVCAR-4 it was 14.6 µM (inactive); in the experiment with OVCAR-8, 3.23 µM (inactive); in the experiment with PC-3, 7.89 µM (inactive). Also, the GI50 in the experiment with RXF 393 is 59.4 µM (inactive); in the experiment on SF-268, 8.17 µM (inactive); with SK-MEL-2 it was 5.27 µM (inactive); with SNB-19, > 100 µM (inactive); in the experiment on SW-620, 12.5 µM (inactive); in the experiment on UO-31 it was 3.43 µM (inactive).

Regarding `CC1CC/C(=C\c2ccc(F)cc2)C2=C1C(c1ccc(F)cc1)N1C(=O)CSC1=N2` (stereo unspecified), the GI50 in the experiment with ACHN is > 100 µM (inactive); with CCRF-CEM, 41.2 µM (inactive); in the experiment with HT-29, 23.2 µM (inactive); in the experiment on K562, 21.9 µM (inactive); in the experiment on KM12, 35.7 µM (inactive); in the experiment with LOX IMVI it was 44 µM (inactive). In addition, the GI50 was > 100 µM (inactive) in the experiment on M14; 55.1 µM (inactive) with MCF7; 30.8 µM (inactive) with NCI-H460; > 100 µM (inactive) in the experiment on OVCAR-3; 69.7 µM (inactive) in the experiment with OVCAR-8; 25.6 µM (inactive) with PC-3. For the same molecule, the GI50 with RXF 393 is 21.7 µM (inactive); in the experiment on SF-268, > 100 µM (inactive); in the experiment with SK-MEL-2, > 100 µM (inactive); in the experiment on SNB-19 it was > 100 µM (inactive); with SW-620, > 100 µM (inactive); with UO-31, 87.9 µM (inactive).

`CSC(SC)(C(=O)O)c1cc(-c2c(Cl)cccc2Cl)no1`: the GI50 in the experiment on ACHN is 46.9 µM (inactive); in the experiment with CCRF-CEM it was 26.4 µM (inactive); in the experiment on HT-29, 32.9 µM (inactive); in the experiment with K562, 50.8 µM (inactive); with LOX IMVI it was 35.6 µM (inactive); with M14, 30.2 µM (inactive). Further, the GI50 is 70.1 µM (inactive) in the experiment on MCF7; 34.9 µM (inactive) in the experiment with NCI-H460; 55.6 µM (inactive) with OVCAR-3; 37.9 µM (inactive) in the experiment with OVCAR-4; > 100 µM (inactive) with OVCAR-8; 34 µM (inactive) with PC-3. Also, the GI50 in the experiment with SF-268 is 51.9 µM (inactive); with SK-MEL-2, 26.3 µM (inactive); in the experiment with SNB-19, > 100 µM (inactive); with SR it was 33 µM (inactive); with SW-620, > 100 µM (inactive); in the experiment with UO-31 it was 25.1 µM (inactive).

Regarding `CC(CN1NC12CCCC2)N1NC12CCCC2` (stereo unspecified), the GI50 in the experiment on ACHN, in the experiment on CCRF-CEM, in the experiment with HT-29, with K562, with KM12 and in the experiment with LOX IMVI was > 100 µM (inactive) each time. The GI50 with M14, with MCF7, in the experiment with NCI-H460, in the experiment with OVCAR-3, in the experiment with OVCAR-4 and in the experiment with OVCAR-8 was > 100 µM (inactive) each time. For the same molecule, the GI50 in the experiment with PC-3, in the experiment on RXF 393, in the experiment on SF-268, with SK-MEL-2, in the experiment on SNB-19 and in the experiment with SW-620 was > 100 µM (inactive) throughout. The GI50 in the experiment with UO-31 is > 100 µM (inactive).

Values taken from ChEMBL document CHEMBL1201862, “PubChem BioAssay data set” (2004).
